Earlier results on 1 molecule are cited in US11857524B2, “Stable oral suspensions of baclofen” (ANI Pharmaceuticals, Inc., priority 2021, dated 2024).

Where two headings read alike, the source gives them in different places.

Take `NCC(CC(=O)O)c1ccc(Cl)cc1` (stereo not drawn) [Baclofen, 4-amino-3-(4-chlorophenyl)-butanoic acid]: the Solubility result is “insoluble” (in chloroform), “very slightly soluble” (in methanol) and “slightly soluble” (in water).
